Test results taken from US20260053861A1, “CELL COMPOSITIONS AND METHODS OF USING THE SAME” (THE REGENTS OF THE UNIVERSITY OF CALIFORNIA, priority 2022, published 2026).
Structures can show the parent of a compound that is named as a salt. Where two headings read alike, the source gives them in different places.

System: hPSC-SCs
[1] = HTS viability of hPSC-SCs in the presence of 30 mM glucose, Prestwick library, Table S4

Compound | z.score.t [1] | z.score.t
O=c1c2ccccc2[se]n1-c1ccccc1 [Ebselen] | 0.3459 | 
Clc1ccccc1CN1CCc2sccc2C1 [Ticlopidine hydrochloride] | 0.7034 | 
C[C@H](CCC(=O)O)[C@H]1CC[C@H]2[C@@H]3[C@H](O)C[C@@H]4C[C@H](O)CC[C@]4(C)[C@H]3CC[C@]12C [Chenodiol] | 1.481 | 
Oc1ccc(OCc2ccccc2)cc1 [Monobenzone] | 0.557 | 
Nc1ccc(S(=O)(=O)Nc2nccs2)cc1 [Sulfathiazole] | 0.9109 | 
C/C(=C(\CCOP(=O)(O)O)SC(=O)c1ccccc1)N(C=O)Cc1cnc(C)nc1N [Benfotiamine] | −0.1239 | 
COc1ccc2c3c1O[C@H]1C[C@@H](O)C=C[C@@]31CCN(C)C2 [Galanthamine hydrobromide] |  | 0.8023
Cn1cnc2c1c(=O)[nH]c(=O)n2C [Theobromine] | −1.169 | 
C#CCN(C)Cc1ccccc1 [Pargyline hydrochloride] | 0.7789 | 
COc1cc(C(=O)NCc2ccc(OCCN(C)C)cc2)cc(OC)c1OC [Trimethobenzamide hydrochloride] | −0.2719 | 
Nc1ncnc2c1ncn2[C@@H]1O[C@H](COP(=O)(O)O)[C@@H](O)[C@H]1O.O [Adenosine 5′-monophosphate monohydrate] |  | 1.049
CCOC(=O)[C@@](C)(N)Cc1ccc(O)c(O)c1 [Methyldopate hydrochloride] | −0.8464 | 
CN[C@@H]1[C@@H](O)[C@@H](O[C@@H]2[C@@H](O)[C@H](O[C@H]3OC(CN)=CC[C@H]3N)[C@@H](N)C[C@H]2N)OC[C@]1(C)O [Sisomicin sulfate] | −0.3319 | 
CN(C)c1nc(N(C)C)nc(N(C)C)n1 [Altretamine] | −0.7567 | 
CC[C@H]1[C@@H]2C[C@H]3[C@@H]4N(C)c5ccccc5[C@]45C[C@@H]([C@H]2[C@H]5O)N3[C@@H]1O [Ajmaline] |  | 0.1767
O=C(O)CCC(=O)Nc1ccc(S(=O)(=O)Nc2nccs2)cc1 [Succinylsulfathiazole] | −0.6792 | 
CO[C@@H]1[C@@H](OC(N)=O)[C@@H](O)[C@H](Oc2ccc3c(O)c(NC(=O)c4ccc(O)c(CC=C(C)C)c4)c(=O)oc3c2C)OC1(C)C [Novobiocin sodium salt] | 1.481 | 
O=C(O)c1cc(-c2ccc(F)cc2F)ccc1O [Diflunisal] | 0.7162 | 
CCCCOc1ccc(C(=O)CCN2CCCCC2)cc1 [Dyclonine hydrochloride] | −0.6492 | 
N=C(N)N1CCc2ccccc2C1 [Debrisoquin sulfate] | 0.6578 | 
CC[C@H](c1ccc(O)cc1)[C@@H](CC)c1ccc(O)cc1 [Hexestrol] | 0.1469 | 
CN1CCc2cc3c(cc2C1O)OCO3 (stereo not shown) [Hydrastinine hydrochloride] | 1.785 | 
CN1CCCN(C(c2ccccc2)c2ccc(Cl)cc2)CC1 (stereo not shown) [Homochlorcyclizine dihydrochloride] |  | −1.66
COc1cc2c3cc1Oc1cc(ccc1O)C[C@@H]1c4c(cc(OC)c(O)c4Oc4ccc(cc4)C[C@@H]3N(C)CC2)CC[N+]1(C)C.Cl.O.O.O.O.O.[Cl-] [Tubocurarine chloride pentahydrate (+)] |  | −1.166
CC(=O)Nc1ccc(O)cc1 [Acetaminophen] | −0.3023 | 
Ifenprodil tartrate | −1.132 | 
NCCc1cc[nH]n1 [Betazole hydrochloride] | 1.681 | 

Compound | z.score.t [1] | z.score.t
C=C1CC[C@H](O)C/C1=C/C=C1\CCC[C@]2(C)[C@@H]([C@H](C)CCCC(C)C)CC[C@@H]12 [Cholecalciferol] |  | 1.034
CC(O)Cn1cnc2c1c(=O)n(C)c(=O)n2C (stereo not shown) [Proxyphylline] | −0.3023 | 
CC[C@H]1CN2CC[C@H]1C[C@H]2[C@H](O)c1ccnc2ccc(OC)cc12 [Hydroquinine hydrobromide hydrate] | 0.1131 | 
CC1(C)S[C@@H]2[C@H](NC(=O)[C@H](N)c3ccccc3)C(=O)N2[C@H]1C(=O)O [Ampicillin trihydrate] | 1.287 | 
C[C@]12CC[C@H]3[C@@H](CCC4=CC(=O)CC[C@@H]43)[C@@H]1CC[C@@H]2O [Nandrolone] |  | 1.306
CCN1CCCC(OC(=O)C(c2ccccc2)c2ccccc2)C1 (stereo not shown) [Piperidolate hydrochloride] |  | −1.025
COc1cc(-c2ccc(N=Nc3ccc4c(S(=O)(=O)[O-])cc(S(=O)(=O)[O-])c(N)c4c3O)c(OC)c2)ccc1N=Nc1ccc2c(S(=O)(=O)[O-])cc(S(=O)(=O)[O-])c(N)c2c1O.[Na+].[Na+].[Na+].[Na+] [Chicago sky blue 6B] | 0.6578 | 
NCCC(=O)NCCc1c[nH]cn1 [Carcinine] | 0.8711 | 
CCCCN(CCCC)CCC(O)c1cc2c(Cl)cc(Cl)cc2c2cc(C(F)(F)F)ccc12 (stereo not shown) [Halofantrine hydrochloride] | −1.422 | 
COc1cc(Cc2cnc(N)nc2N)cc(OC)c1OC [Trimethoprim] | 0.2479 | 
Cc1nnc(NS(=O)(=O)c2ccc(N)cc2)s1 [Sulfamethizole] | 1.132 | 
C=CCN1CCCC1CNC(=O)c1cc2[nH]nnc2cc1OC (stereo not shown) [Alizapride HCl] | 0.5437 | 
CC(=O)[C@H]1CC[C@H]2[C@@H]3CC=C4C[C@@H](O)CC[C@]4(C)[C@H]3CC[C@]12C [Pregnenolone] | −0.6864 | 
C/C=C(/C(=C/C)c1ccc(O)cc1)c1ccc(O)cc1 [Dienestrol] | −1.123 | 
NS(=O)(=O)c1cc2c(cc1Cl)NC(CC1CCCC1)NS2(=O)=O (stereo not shown) [Cyclopenthiazide] | 2.573 | 
C=C(CC)C(=O)c1ccc(OCC(=O)O)c(Cl)c1Cl [Ethacrynic acid] | 1.53 | 
CN(C)C(=O)Oc1cccc([N+](C)(C)C)c1 [Neostigmine bromide] |  | 1.018
NC(=O)c1cc[n+](CC2=C(C(=O)O)N3C(=O)[C@@H](NC(=O)[C@@H](c4ccccc4)S(=O)(=O)[O-])[C@H]3SC2)cc1 [Cefsulodin sodium salt] | −0.03362 | 
Clc1ccc(C(Cn2ccnc2)OCc2c(Cl)cccc2Cl)c(Cl)c1 (stereo not shown) [Isoconazole] | −1.91 | 
CN(C)CCOC(C)(c1ccccc1)c1ccccn1 (stereo not shown) [Doxylamine succinate] | −0.1538 | 
CC(C)NC[C@@H](O)COc1cccc2ccccc12.Cl [(R)-Propranolol hydrochloride] | −0.04682 | 
CN1[C@@H](CC(=O)c2ccccc2)CCC[C@H]1C[C@H](O)c1ccccc1.Cl [Lobeline alpha (−) hydrochoride] |  | −0.2904
CCCOc1ccccc1-c1nc2nn[nH]c2c(=O)[nH]1 [Zaprinast] | −0.4341 | 
CC[N+](C)(C)c1cccc(O)c1 [Edrophonium chloride] |  | 0.7913
CCN[C@H]1C[C@H](C)S(=O)(=O)c2sc(S(N)(=O)=O)cc21 [Dorzolamide hydrochloride] | −0.7873 | 
NS(=O)(=O)c1cc2c(cc1C(F)(F)F)NCNS2(=O)=O [Hydroflumethiazide] | −0.1092 | 
Nc1cc(C(Cl)=C(Cl)Cl)c(S(N)(=O)=O)cc1S(N)(=O)=O [Clorsulon] | 0.563 | 

Compound | z.score.t [1] | z.score.t
CCCCNc1c(C(=O)OCC)c(C)nc2c1cnn2CC [Tracazolate hydrochloride] | −0.9487 | 
C[N+]1(CCCCC[N+]2(C)CCCC2)CCCC1.O=C([O-])C(O)C(O)C(=O)O.O=C([O-])C(O)C(O)C(=O)O [Pentolinium bitartrate] |  | 0.2038
Trimipramine maleate salt | 0.2361 | 
(−)-MK 801 hydrogen maleate |  | 1.657
CCOC(=O)c1ccc(N)cc1 [Benzocaine] | −0.8317 | 
Cc1[nH]c(=O)c(C#N)cc1-c1ccncc1 [Milrinone] | 0.3236 | 
Oc1c(I)cc(Cl)c2cccnc12 [Clioquinol] | −0.2802 | 
Nc1cc(N2CCCCC2)nc(N)[n+]1[O-] [Minoxidil] | 0.2479 | 
OCCN1CCN(CCCN2c3ccccc3Sc3ccc(Cl)cc32)CC1 [Perphenazine] | −1.746 | 
CCN1CCN(C(=O)N[C@@H](C(=O)N[C@@H]2C(=O)N3C(C(=O)O)=C(CSc4nnnn4C)CS[C@H]23)c2ccc(O)cc2)C(=O)C1=O [Cefoperazone dihydrate] | −0.7233 | 
CC(C)Cc1ccc([C@H](C)C(=O)O)cc1 [S-(+)-ibuprofen] | 1.02 | 
Cn1c(=O)c2c(ncn2CCO)n(C)c1=O [Etofylline] | 0.9225 | 
C[N+]12CCC(CC1)C(OC(=O)C(O)(c1ccccc1)c1ccccc1)C2 (stereo not shown) [Clidinium bromide] | 1.743 | 
COc1ccc2c(c1OC)C(=O)O[C@@H]2[C@H]1c2c(cc3c(c2OC)OCO3)CCN1C [Noscapine] | −0.3731 | 
CCC1(c2cccc(O)c2)CCCCN(C)C1 (stereo not shown) [Meptazinol hydrochloride] |  | 0.01078
Cc1cccc(C)c1OCC(C)N (stereo not shown) [Mexiletine hydrochloride] | 0.6648 | 
CCN(CC)CCCC(C)Nc1ccnc2cc(Cl)ccc12 (stereo not shown) [Chloroquine diphosphate] |  | 0.7847
COC(=O)[C@@H]1[C@H]2C[C@H]3c4[nH]c5ccccc5c4CCN3C[C@@H]2CC[C@@H]1O [Yohimbine hydrochloride] | 0.6763 | 
Nc1cc(-c2ccncc2)c[nH]c1=O [Amrinone] | −1.025 | 
C[C@H]1CC[C@]2(NC1)O[C@H]1C[C@H]3[C@@H]4CC[C@H]5C[C@@H](O)CC[C@]5(C)[C@H]4CC[C@]3(C)[C@H]1[C@@H]2C [Tomatidine] |  | −0.2904
COc1ccccc1OCC(O)CO (stereo not shown) [Guaifenesin] | −0.3023 | 
CC(=O)[C@H]1CC[C@H]2[C@@H]3C[C@H](C)C4=CC(=O)CC[C@]4(C)[C@H]3[C@@H](O)C[C@]12C [Medrysone] | 0.1244 | 
Clc1cccc(Cl)c1N=C1NCCN1 [Clonidine hydrochloride] | 1.056 | 
COc1ccc(CC2c3cc(OC)c(OC)cc3CC[N+]2(C)CCC(=O)OCCCCCOC(=O)CC[N+]2(C)CCc3cc(OC)c(OC)cc3C2Cc2ccc(OC)c(OC)c2)cc1OC (stereo not shown) [Atracurium besylate] | 0.5041 | 
Clc1ccc(CSC(Cn2ccnc2)c2ccc(Cl)cc2Cl)cc1 (stereo not shown) [Sulconazole nitrate] | −0.2136 | 
